Data reported in ChEMBL document CHEMBL3039007, “Structure-based identification of OATP1B1/3 inhibitors” (Mol Pharmacol, 2013).

Legend:
[1] = target: T1, Solute carrier organic anion transporter family member 1B3 (Homo sapiens, UniProt Q9NPD5); conditions: chinese hamster, cho, 10 µM
T1 sequence (Q9NPD5 whole entry): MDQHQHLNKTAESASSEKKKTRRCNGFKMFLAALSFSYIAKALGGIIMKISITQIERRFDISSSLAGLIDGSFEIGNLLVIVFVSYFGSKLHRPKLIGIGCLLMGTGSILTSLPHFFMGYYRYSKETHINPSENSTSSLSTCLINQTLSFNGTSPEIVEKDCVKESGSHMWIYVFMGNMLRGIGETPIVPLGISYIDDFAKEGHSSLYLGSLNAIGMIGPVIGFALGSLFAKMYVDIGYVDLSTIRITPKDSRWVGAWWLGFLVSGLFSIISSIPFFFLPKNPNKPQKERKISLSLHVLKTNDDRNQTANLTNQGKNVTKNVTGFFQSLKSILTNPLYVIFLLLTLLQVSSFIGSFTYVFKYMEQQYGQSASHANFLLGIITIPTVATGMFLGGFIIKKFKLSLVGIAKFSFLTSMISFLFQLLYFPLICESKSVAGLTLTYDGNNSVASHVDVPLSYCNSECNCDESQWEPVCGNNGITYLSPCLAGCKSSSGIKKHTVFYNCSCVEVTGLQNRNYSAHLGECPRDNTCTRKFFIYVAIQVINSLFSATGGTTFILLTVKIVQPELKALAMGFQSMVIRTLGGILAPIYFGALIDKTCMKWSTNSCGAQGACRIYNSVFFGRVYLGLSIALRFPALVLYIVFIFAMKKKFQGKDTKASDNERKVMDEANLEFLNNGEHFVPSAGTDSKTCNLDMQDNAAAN

[2] = target: T2, Solute carrier organic anion transporter family member 1B1 (Homo sapiens, UniProt Q9Y6L6); conditions: chinese hamster, cho, 10 µM
T2 sequence (Q9Y6L6 whole entry): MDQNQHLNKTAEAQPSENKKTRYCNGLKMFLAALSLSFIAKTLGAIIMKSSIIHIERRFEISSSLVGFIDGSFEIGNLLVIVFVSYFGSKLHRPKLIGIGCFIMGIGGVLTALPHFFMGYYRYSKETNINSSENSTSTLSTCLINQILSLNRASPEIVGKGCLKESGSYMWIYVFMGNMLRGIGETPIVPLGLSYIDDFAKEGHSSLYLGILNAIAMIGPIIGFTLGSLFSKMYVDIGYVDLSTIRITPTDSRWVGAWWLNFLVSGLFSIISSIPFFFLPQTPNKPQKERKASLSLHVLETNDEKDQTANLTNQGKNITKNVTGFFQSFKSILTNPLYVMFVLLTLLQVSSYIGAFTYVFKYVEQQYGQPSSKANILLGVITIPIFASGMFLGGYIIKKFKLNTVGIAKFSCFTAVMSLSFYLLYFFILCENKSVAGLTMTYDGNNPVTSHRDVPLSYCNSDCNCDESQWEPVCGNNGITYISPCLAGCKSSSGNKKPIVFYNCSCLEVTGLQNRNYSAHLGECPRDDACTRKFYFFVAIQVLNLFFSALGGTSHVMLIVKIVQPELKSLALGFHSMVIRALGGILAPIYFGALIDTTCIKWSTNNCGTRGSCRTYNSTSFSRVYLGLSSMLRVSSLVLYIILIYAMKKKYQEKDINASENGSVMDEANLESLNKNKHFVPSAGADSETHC

| Compound | residual activity [1] | residual activity [2] |
| --- | --- | --- |
| C[C@@H]1O[C@@H](O[C@H]2[C@H](Oc3cc(O)c4c(=O)cc(-c5ccc(O)cc5)oc4c3)O[C@H](CO)[C@@H](O)[C@@H]2O)[C@H](O)[C@H](O)[C@H]1O [RHOIFOLIN] | 203.1% | 101.7% |
| NC(=O)c1ncn([C@@H]2O[C@H](CO)[C@@H](O)[C@H]2O)n1 [RIBAVIRIN] | 87.39% | 112.3% |
| OC[C@@H](O)[C@@H](O)[C@@H](O)CO [RIBITOL] | 94.42% | 81.13% |
| CO[C@H]1/C=C/O[C@@]2(C)Oc3c(C)c(O)c4c(O)c(c(/C=N/N5CCN(C)CC5)c(O)c4c3C2=O)NC(=O)/C(C)=C\C=C\[C@H](C)[C@H](O)[C@@H](C)[C@@H](O)[C@@H](C)[C@H](OC(C)=O)[C@@H]1C [RIFAMPIN] | 22.01% | 33.63% |
| CO[C@H]1/C=C/O[C@@]2(C)Oc3c(C)c(O)c4c(O)c(c5c(nc6cc(C)ccn65)c4c3C2=O)NC(=O)/C(C)=C\C=C\[C@H](C)[C@H](O)[C@@H](C)[C@@H](O)[C@@H](C)[C@H](OC(C)=O)[C@@H]1C [RIFAXIMIN] | 81.07% | 63.34% |
| Nc1nc2ccc(OC(F)(F)F)cc2s1 [RILUZOLE] | 124.8% | 95.81% |
| Cc1nc2sccn2c(=O)c1CCN1CCC(=C(c2ccc(F)cc2)c2ccc(F)cc2)CC1 [RITANSERIN] | 101.7% | 96.72% |
| CC(NCCc1ccc(O)cc1)C(O)c1ccc(O)cc1.Cl (configuration not stated) [RITODRINE HYDROCHLORIDE] | 112.7% | 125.6% |
| COc1ccc(-c2c(OC)c3c(OC)c4c(cc3oc2=O)OC(C)(C)C=C4)cc1 [ROBUSTIC ACID METHYL ETHER] | 140.2% | 184.1% |
| COc1ccc(-c2c(O)c3c(OC)c4c(cc3oc2=O)OC(C)(C)C=C4)cc1 [ROBUSTIC ACID] | 74.37% | 96.44% |
| CC1(C)C=Cc2c(cc3occ(-c4ccc5c(c4)OCO5)c(=O)c3c2O)O1 [ROBUSTONE] | 96.96% | 102.3% |
| CS(=O)(=O)c1ccc(C2=C(c3ccccc3)C(=O)OC2)cc1 [ROFECOXIB] | 84.03% | 134.4% |
| Cn1c([N+](=O)[O-])cnc1COC(N)=O [RONIDAZOLE] | 88.05% | 103.6% |
| O=C(/C=C/c1ccc(O)c(O)c1)O[C@H](Cc1ccc(O)c(O)c1)C(=O)O [ROSMARINIC ACID] | 102.5% | 103.9% |
| C=C(C)[C@H]1Cc2c(ccc3c2O[C@@H]2COc4cc(OC)c(OC)cc4[C@@H]2C3=O)O1 [ROTENONE] | 43.86% | 23.22% |
| COc1cc2c(cc1OC)[C@@H]1C(=O)c3ccc(OC)c(CC=C(C)C)c3O[C@@H]1CO2 [ROTENONIC ACID, METHYL ETHER] | 108.1% | 77.03% |
| COc1cc2c(cc1OC)[C@@H]1C(=O)c3ccc(O)c(CC=C(C)C)c3O[C@@H]1CO2 [ROTENONIC ACID] | 99.21% | 53.2% |
| O=[N+]([O-])c1cc([As](=O)(O)O)ccc1O [ROXARSONE] | 90.61% | 82.84% |
| CC[C@H]1OC(=O)[C@H](C)[C@@H](O[C@H]2C[C@@](C)(OC)[C@@H](O)[C@H](C)O2)[C@H](C)[C@@H](O[C@@H]2O[C@H](C)C[C@H](N(C)C)[C@H]2O)[C@](C)(O)C[C@@H](C)/C(=N\OCOCCOC)[C@H](C)[C@@H](O)[C@]1(C)O [ROXITHROMYCIN] | 77.16% | 91.33% |
| CC[C@@]1(O)C[C@H](O)c2c(cc3c(c2O)C(=O)c2c(O)ccc(O)c2C3=O)[C@H]1C(=O)OC [RUTILANTINONE] | 99.74% | 74.91% |
| CCCCSP(=O)(SCCCC)SCCCC [S,S,S,-TRIBUTYLPHOSPHOROTRITHIOATE] | 111.8% | 125.7% |
